The values that follow are results of earlier work, collected in patent US20130012613A1, “METHOD FOR SYNTHESIZING CALIXARENE AND/OR CYCLODEXTRIN COPOLYMERS, TERPOLYMERS AND TETRAPOLYMERS, AND USES THEREOF” (Drug Research Technology Transfer LLC, priority 2009, published 2013).

Values after ≈ are worked out from the molar mass of the structure shown.

The conditions of the series: native cyclodextrins.
With `OC[C@H]1O[C@@H]2O[C@H]3[C@H](O)[C@@H](O)[C@@H](O[C@H]4[C@H](O)[C@@H](O)[C@@H](O[C@H]5[C@H](O)[C@@H](O)[C@@H](O[C@H]6[C@H](O)[C@@H](O)[C@@H](O[C@H]7[C@H](O)[C@@H](O)[C@@H](O[C@H]1[C@H](O)[C@H]2O)O[C@@H]7CO)O[C@@H]6CO)O[C@@H]5CO)O[C@@H]4CO)O[C@@H]3CO` [alpha-CD, alpha-cyclodextrin], the solubility in water is 127 mg/mL (≈ 131 mM).
Turning to `OC[C@H]1O[C@@H]2O[C@H]3[C@H](O)[C@@H](O)[C@@H](O[C@H]4[C@H](O)[C@@H](O)[C@@H](O[C@H]5[C@H](O)[C@@H](O)[C@@H](O[C@H]6[C@H](O)[C@@H](O)[C@@H](O[C@H]7[C@H](O)[C@@H](O)[C@@H](O[C@H]8[C@H](O)[C@@H](O)[C@@H](O[C@H]1[C@H](O)[C@H]2O)O[C@@H]8CO)O[C@@H]7CO)O[C@@H]6CO)O[C@@H]5CO)O[C@@H]4CO)O[C@@H]3CO` [beta-CD, beta-cyclodextrin], the solubility in water was 18.8 mg/mL (≈ 16.6 mM).
For `OC[C@H]1O[C@@H]2O[C@H]3[C@H](O)[C@@H](O)[C@@H](O[C@H]4[C@H](O)[C@@H](O)[C@@H](O[C@H]5[C@H](O)[C@@H](O)[C@@H](O[C@H]6[C@H](O)[C@@H](O)[C@@H](O[C@H]7[C@H](O)[C@@H](O)[C@@H](O[C@H]8[C@H](O)[C@@H](O)[C@@H](O[C@H]9[C@H](O)[C@@H](O)[C@@H](O[C@H]1[C@H](O)[C@H]2O)O[C@@H]9CO)O[C@@H]8CO)O[C@@H]7CO)O[C@@H]6CO)O[C@@H]5CO)O[C@@H]4CO)O[C@@H]3CO` [gamma-CD, gamma-cyclodextrin], the solubility in water is 236 mg/mL (≈ 182 mM).
